Results taken from article PMC12892976, “Alkylation-based optimization of antifungal FPPS inhibitors yields a potent, broad-spectrum lipophilic zoledronate derivative” (mBio, 2025).
≈ marks a conversion by molar mass, not a printed value.

Assays:
Cryptococcus neoformans [1] = assay: checkerboard drug interaction (FICI, MICc); format: cell-based;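 note: antifungal plus FPPS inhibitor pairs tested against Cryptococcus neoformans by simplified diagonal checkerboard screening, FICI computed under the Loewe additivity model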
Experimental: (§1) Drug interactions between antifungals and FPPS inhibitors were investigated using a simplified checkerboard diagonal screening method ([45]). […] FICIs were determined according to the Loewe additivity model ([17]).

Trichophyton rubrum [2] = assay: MIC/MFC broth microdilution (CLSI)
Experimental: (§2) Antifungal susceptibility was determined by broth microdilution according to the CLSI guidelines described in M27-Ed4 ([16]). […] MFC was determined by back-plating drug-treated cultures from MIC broths onto SDA plates. The MFC was defined as the lowest concentration from which no colonies could be cultured.

[3] = system: Cryptococcus deuterogattii; assay: checkerboard drug interaction (FICI, MICc); format: cell-based;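 note: simplified diagonal checkerboard screen pairing antifungal drugs with FPPS inhibitors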
Experimental: as §1

Trichophyton rubrum [4] = assay: checkerboard drug interaction (FICI, MICc); format: cell-based;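 note: simplified diagonal checkerboard screen pairing azole antifungals with FPPS inhibitors, FICI calculated under the Loewe additivity model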
Experimental: as §1

eight fungal species = assay: MIC/MFC summary across the eight fungal species of Table 1; format: cell-based
Experimental: The antifungal activity of these compounds was evaluated according to CLSI guidelines ([16]).

Candida glabrata [5] = assay: checkerboard drug interaction (FICI, MICc); format: cell-based;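 note: simplified diagonal checkerboard screen pairing antifungals with FPPS inhibitors, FICI calculated under the Loewe additivity model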
Experimental: as §1

Cryptococcus neoformans [6] = assay: MIC/MFC broth microdilution (CLSI);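 note: susceptibility testing followed the CLSI M27-Ed4 broth microdilution document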
Experimental: as §2

Candida glabrata [7] = assay: MIC/MFC broth microdilution (CLSI);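 note: broth microdilution following CLSI M27-Ed4, MFC taken as the lowest drug level yielding no growth once MIC wells were subcultured on SDA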
Experimental: as §2

Saccharomyces cerevisiae [8] = assay: MIC/MFC broth microdilution (CLSI); format: cell-based; conditions: Saccharomyces cerevisiae S288c
Experimental: as §2

Aspergillus flavus [9] = assay: checkerboard drug interaction (FICI, MICc); format: cell-based;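 note: simplified diagonal checkerboard screen pairing azole antifungals with FPPS inhibitors, FICI calculated under the Loewe additivity model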
Experimental: as §1

Aspergillus niger = assay: MIC broth microdilution (CLSI); format: cell-based; conditions: Aspergillus niger 111
Experimental: (§3) Antifungal susceptibility was determined by broth microdilution according to the CLSI guidelines described in M27-Ed4 ([16]).

Aspergillus fumigatus [10] = assay: MIC/MFC broth microdilution (CLSI); conditions: ATCC204305
Experimental: as §2

Saccharomyces cerevisiae [11] = assay: checkerboard drug interaction (FICI, MICc); format: cell-based;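 note: simplified diagonal checkerboard screen pairing antifungals with FPPS inhibitors, FICI calculated under the Loewe additivity model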
Experimental: as §1

Candida albicans [12] = assay: checkerboard drug interaction (FICI, MICc); format: cell-based;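 note: antifungal plus FPPS inhibitor combinations on Candida albicans tested by a simplified diagonal checkerboard screen, with FICI calculated under the Loewe additivity model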
Experimental: as §1

Candida tropicalis = assay: checkerboard drug interaction (FICI, MICc); format: cell-based;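 note: simplified diagonal checkerboard screen of antifungal plus FPPS inhibitor combinations, with FICI computed by the Loewe additivity model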
Experimental: as §1

Candida albicans [13] = assay: MIC/MFC broth microdilution (CLSI); format: cell-based; conditions: Candida albicans SC5314
Experimental: as §2

[14] = system: Cryptococcus deuterogattii; assay: MIC/MFC broth microdilution (CLSI);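 note: broth microdilution per CLSI M27-Ed4. MFC is the lowest concentration yielding no colonies when MIC broths are subcultured onto SDA plates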
Experimental: as §2

Aspergillus fumigatus [15] = assay: checkerboard drug interaction (FICI, MICc); format: cell-based;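 note: simplified diagonal checkerboard screen pairing antifungals with FPPS inhibitors against Aspergillus fumigatus, with FICI calculated under the Loewe additivity model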
Experimental: as §1

Nannizzia gypsea = assay: MIC broth microdilution (CLSI); format: cell-based; conditions: Nannizzia gypsea R-131
Experimental: as §3

Aspergillus flavus [16] = assay: MIC/MFC broth microdilution (CLSI); conditions: ATCC204304
Experimental: as §2

CC(=O)N1CCN(c2ccc(OCC3COC(Cn4ccnc4)(c4ccc(Cl)cc4Cl)O3)cc2)CC1 (stereo not shown) [KET, ketoconazole]
antifungal MICc (Cryptococcus neoformans [1]; in combination with 10-ZOL): 0.063
antifungal MICc (Cryptococcus neoformans [1]; in combination with ZOL): 0.125
MFC (Trichophyton rubrum [2]; Trichophyton rubrum): > 16 µg/mL
MIC (Trichophyton rubrum [2]; Trichophyton rubrum): 4 µg/mL (≈ 7.53 µM)
MIC / MEC (Trichophyton rubrum [2]; Trichophyton rubrum R-218): 4 µg/mL (≈ 7.53 µM)
antifungal MICc ([3]; in combination with 10-ZOL): 0.063
antifungal MICc ([3]; in combination with ZOL): 0.5
antifungal MICc (Trichophyton rubrum [4]; in combination with 10-ZOL): 1
antifungal MICc (Trichophyton rubrum [4]; in combination with ZOL): 1
MFC (eight fungal species; across eight species, read-out: Geometric mean MFC): 6.7 µg/mL (≈ 12.6 µM)
MIC (eight fungal species; read-out: Geometric mean MIC): 1.3 µg/mL (≈ 2.45 µM)
antifungal MICc (Candida glabrata [5]; in combination with 10-ZOL): 0.016
antifungal MICc (Candida glabrata [5]; in combination with ZOL): 0.031
MFC (Cryptococcus neoformans [6]; Cryptococcus neoformans): 4 µg/mL (≈ 7.53 µM)
MIC (Cryptococcus neoformans [6]; Cryptococcus neoformans): 0.25 µg/mL (≈ 0.47 µM)
MIC / MEC (Cryptococcus neoformans [6]; Cryptococcus neoformans H99): 0.25 µg/mL (≈ 0.47 µM)
MIC / MEC (Candida glabrata [7]; Candida glabrata CBS138 (ATCC 2001)): 0.5 µg/mL (≈ 0.941 µM)
MFC (Candida glabrata [7]; Nakaseomyces glabratus, CBS138): 4 µg/mL (≈ 7.53 µM)
MIC (Candida glabrata [7]; Nakaseomyces glabratus, CBS138): 0.5 µg/mL (≈ 0.941 µM)
MFC (Saccharomyces cerevisiae [8]): 8 µg/mL (≈ 15.1 µM)
MIC (Saccharomyces cerevisiae [8]): 1 µg/mL (≈ 1.88 µM)
MIC / MEC (Saccharomyces cerevisiae [8]): 1 µg/mL (≈ 1.88 µM)
antifungal MICc (Aspergillus flavus [9]; in combination with 10-ZOL): 1
antifungal MICc (Aspergillus flavus [9]; in combination with ZOL): 2
MIC / MEC (Aspergillus niger): 8 µg/mL (≈ 15.1 µM)
MFC (Aspergillus fumigatus [10]): 16 µg/mL (≈ 30.1 µM)
MIC (Aspergillus fumigatus [10]): 4 µg/mL (≈ 7.53 µM)
MIC / MEC (Aspergillus fumigatus [10]): 4 µg/mL (≈ 7.53 µM)
antifungal MICc (Saccharomyces cerevisiae [11]; in combination with 10-ZOL): 0.25
antifungal MICc (Saccharomyces cerevisiae [11]; in combination with ZOL): 0.25
antifungal MICc (Candida albicans [12]; in combination with 10-ZOL): 0.125
antifungal MICc (Candida albicans [12]; in combination with ZOL): 0.25
antifungal MICc (Candida tropicalis; in combination with 10-ZOL): 4
antifungal MICc (Candida tropicalis; in combination with ZOL): 0.5
MFC (Candida albicans [13]): 0.25 µg/mL (≈ 0.47 µM)
MIC (Candida albicans [13]): 0.0625 µg/mL (≈ 0.118 µM)
MIC / MEC (Candida albicans [13]): 0.06 µg/mL (≈ 0.113 µM)
MFC ([14]; Cryptococcus deuterogattii): 8 µg/mL (≈ 15.1 µM)
MIC ([14]; Cryptococcus deuterogattii): 4 µg/mL (≈ 7.53 µM)
MIC / MEC ([14]; Cryptococcus deuterogattii R265): 4 µg/mL (≈ 7.53 µM)
antifungal MICc (Aspergillus fumigatus [15]; in combination with 10-ZOL): 0.25
antifungal MICc (Aspergillus fumigatus [15]; in combination with ZOL): 2
MIC / MEC (Nannizzia gypsea): 16 µg/mL (≈ 30.1 µM)
MFC (Aspergillus flavus [16]): 8 µg/mL (≈ 15.1 µM)
MIC (Aspergillus flavus [16]): 2 µg/mL (≈ 3.76 µM)
MIC / MEC (Aspergillus flavus [16]): 2 µg/mL (≈ 3.76 µM)
